Blank lines part the entries; values can stand above or below the molecule they belong to.
Experiments:
lymphoblastoid 5/2 cells = experiment: Conversion of 13,14DHR to 14HRR by lymphoblastoid cells; type: in vitro ADME, human; settings: 10^-6 M, 1 and 2 hours, ITLB medium
Description: FIGS. 25A through 25D. 13,14DHR can be converted to 14HRR by lymphoblastoid cells. 200,000 5/2 cells/ml were incubated with or without 10^-6 M 13,14DHR added in serum-free ITLB medium. After 1 and 2 hours, cells pellets corresponding to 10 ml of culture were delipidated and the corresponding lipid fractions separated on an analytical C18 reversed-phase column according to FIG. 20. Peaks were identified according to their retention times and their UV absorption patterns.
Lymphoblastoid 5/2 cells devoid of retinol were cultured in the presence or absence of 10^-6 M 13,14DHR for 1 and 2 hours in ITLB medium. The retinoids extracted from the cell pellets were separated by HPLC according to FIG. 20. […] There was no 14HRR measurable in control cultures.

5/2 cells = experiment: Growth-supporting activity on 5/2 cells in serum-free ITLB medium; type: cell-based, human
Description: The assay was done in 96-well microtiter plates in a final volume of 200 ul/well. The cells were cultured for 72 hours and cell growth determined by [^3 H] thymidine (0.8 μCi/well)labeling for the last 16 hours. Retinoids were added at the indicated concentrations at the initiation of culture and every 24 hours thereafter.
5/2 cells were grown in the absence of retinol in a medium containing the basic RPMI 1640 amino acid/salt mixture, insulin (5 μg/ml), transferrin (5 μg/ml), albumin (0.1%) and linoleic acid (10^-6 M) (ITLB). […] The dose-response curve shown in FIG. 26 indicates an effective concentration of 10^-7 M.

T cells = experiment: T cell activation and proliferation, retinol cofactor requirement; type: cell-based, murine
Description: They were seeded into 96-well flat-bottom plates at varying cellular densities in a final volume of 100 μl. In control experiments, cells were cultured in medium containing 10% FCS or 3% human serum and 5×10^-5 M 2ME. […] Cultures were carried out in duplicate. Plates were incubated at 37° C. in a humidified 5% CO2 atmosphere. Cellular proliferation was determined by [^3 H] thymidine uptake (0.5 uCi/well; New England Nuclear, Boston, Mass.) after the incubation times indicated for each experiment with a 4 hour labeling pulse. Cells were harvested onto glass filter and [^3 H]TdR incorporation was determined by liquid scintillation counting. The data presented are the means of duplicate or six replicate cultures. The restriction to duplicate measurements was necessary to conserve scarce 14HRR. […] Each experiment was repeated at least twice.

5/2 lymphoblastoid cells = experiment: Kinetics of biosynthesis of 13,14DHR and 14HRR from 3H retinol in 5/2 lymphoblastoid cells; type: in vitro ADME, human
Description: FIG. 24. Kinetics of biosynthesis of 14HRR in lymphoblastoid cells. 50 ml ITLB 600,000 5/2 cells/ml were incubated with 20 μCi of ^3 H retinol in serum-free ITLB medium. Cell pellets corresponding to 10 ml of culture were delipidated at 20 minute intervals and the corresponding lipid fraction separated on an analytical C18 reversed-phase column (see FIG. 20). Radioactive peaks were identified by coelution with cold reference retinoids.
The kinetics of biosynthesis of 13,14DHR and 14HRR were determined in 5/2 lymphoblastoid cells. These cells were cultured in the presence of ^3 H retinol for different time periods, and the cell-associated retinoids extracted as referenced above. They were then chromatographed on an analytical C18 column as described in FIG. 20. The sizes of peaks emerging at 16.8 minutes, representing 13,14DHR, and 18.5 minutes, representing 14HRR, were measured and plotted in the bar diagram of FIG. 24.

[1] = tested on: lymphoblastoid cells (LCL); settings: cited from earlier work
lymph node T cells = experiment: Proliferation of anti-CD3 activated lymph node T cells; type: cell-based, BALB/c mouse
From the text: (§1) Growth curves of lymph node T cells depleted of antigen-presenting cells (FIG. 17A) with and without 10^-6 M retinol at 2×10^5 and 5×10^4 cells/well. (FIG. 17B) Dose-responses elicited by different retinoids in cultures of lymph node T cells depleted of antigen-presenting cells. Also shown are the growth curves of CD4^+ (FIG. 17C) and CD8^+ T lymphocytes (FIG. 17D) in the presence of either retinol, 14HRR, human serum or in their absence.
(§2) T lymphocytes, purified as described, 5×10^4 /well, were activated with immobilized anti-CD3 antibody in ITLB medium. The indicated amounts of retinoids or human serum were added at initiation of cultures. […] 14HRR was added every 12 hours. DNA synthesis was measured by a 4 hour pulse with tritiated thymidine. SDs were ≤17%.
(§3) Mature T cells were obtained from pooled intestinal, axillary, inguinal and submandibular lymph nodes of 4 to 10-week-old BALB/c mice. To fractionate cells into CD4 and CD8 subsets and at the same time remove APC, a combination of adherence and complement lysis was used as follows:
(§4) The cell suspension in a volume of 2 ml was applied to a nylon wool column (40) (0.6 g of washed nylon fibers in the barrel of a 10 ml syringe) and incubated at 37° C. for 40 min. […] The success of the enrichment procedures was monitored cytofluorimetrically using FITC-conjugated anti-CD8 and PE-conjugated anti-CD4. […]
Cells were cultured in serum-free medium, referred to as ITLB, containing RPMI 1640 supplemented with 8×10^-7 M insulin (5 μg/ml), 7×10^-8 M transferrin (5 μg/ml), 2×10^-6 M linoleic acid, 2×10^-6 M delipidated BSA (0.12 mg/ml), 2 mM L-glutamine, 1 mM sodium pyruvate and antibiotics. […] The optimal concentration for stimulation of T cells was determined for each batch of anti-CD3 mAb and Con A. The optimal range of Con A was particularly narrow in serum-free medium (0.5-0.2 μg/ml) and varied with the cell density used. […] Cellular proliferation was determined by [^3 H] thymidine uptake (0.5 uCi/well; New England Nuclear, Boston, Mass.) after the incubation times indicated for each experiment with a 4 hour labeling pulse. […]

B lymphocytes = settings: previous analyses with B lymphocytes (ref. 33); cited from earlier work
[2] = tested on: activated human thymocytes; settings: cited from earlier work
thymocytes = experiment: Proliferation of anti-CD3 activated thymocytes in serum-free ITLB medium; type: cell-based, BALB/c mouse
Description: FIG. 14A: Purified BALB/c thymocytes were activated with immobilized anti-CD3e antibody and cultivated for four days in ITLB medium with or without retinol (3×10^-6 M), 14HRR (6×10^-7 M) (fresh 14HRR was added every 12 hours), human serum (3%) or FCS (10%) at the cellular densities shown. Proliferation was assayed by tritiated thymidine incorporation into cellular DNA.
FIG. 14B: BALB/c thymocytes (10^6 /ml) were added to microtiter plates coated with titrated amounts of anti-CD3e antibody with […] retinol or without, as indicated. Proliferation was measured in hexaduplicate wells on day 3 by ^3 H thymidine incorporation assay.
Purified thymocytes (5×10^5 cells/well) were stimulated by TCR crosslinking with immobilized anti-CD3e antibody (FIG. 15A) or 0.4 μg/ml Con A (FIG. 15B) in serum-free ITLB medium. The indicated amounts of retinoids were added either once at the beginning of the experiment (marked as "1×") or every 12 hours thereafter (marked as "6×"). DNA synthesis was measured after 72 hours by tritiated thymidine uptake as described.
Purified thymocytes (10^5 cells/well) were activated with anti-CD3 antibody in ITLB medium with or without retinol (3×10^-6 M), 14HRR (6×10^-7, added every 12 hours or human serum (3%)). DNA synthesis was measured daily by a 4 hour pulse of tritiated thymidine.
Thymocytes (5×10^4 /well) were activated by immobilized anti-CD3 mAb in medium ITLB. Retinol (2×10^-6 M) was added at initiation of culture, or delayed by 12 hours and 24 hours, respectively, or omitted altogether. ^3 H thymidine pulses of 4 hours were used to measure DNA synthesis of hexaduplicate wells.
Thymuses of 3 to 6-week-old BALB/c mice were teased in serum-free RPMI medium supplemented with 1% BSA, 10^-6 M linoleic acid and antibiotics. Depletion of accessory cells was achieved by two cycles of complement-dependent lysis with a mixture of anti-IA^d (5 μg/ml) and anti-IE^d (1:500 diluted ascites fluid). Briefly, cells were incubated on ice for 30 minutes with Ia antibodies, spun down, resuspended in 1:40 diluted rabbit complement, and incubated at 37° C. for 45 minutes. Incubations and two subsequent washes were carried out with RPMI medium containing 1% BSA. Cell viability was evaluated by trypan blue dye exclusion. To determine the extent of depletion of accessory cells, samples were stained with FITC-conjugated anti-Fc receptor antibody and analyzed by flow cytometry on a FACScan instrument (Becton Dickinson).
Cells were cultured in serum-free medium, referred to as ITLB, containing RPMI 1640 supplemented with 8×10^-7 M insulin (5 μg/ml), 7×10^-8 M transferrin (5 μg/ml), 2×10^-6 M linoleic acid, 2×10^-6 M delipidated BSA (0.12 mg/ml), 2 mM L-glutamine, 1 mM sodium pyruvate and antibiotics. They were seeded into 96-well flat-bottom plates at varying cellular densities in a final volume of 100 μl. In control experiments, cells were cultured in medium containing 10% FCS or 3% human serum and 5×10^-5 M 2ME. T cells and thymocytes were activated with immobilized, purified anti-mAb CD3e or by the addition of Con A in the presence or absence of different concentrations of retinoids. Unless indicated otherwise, retinoids were replenished every 12 hours to maintain a reasonably constant concentration of these labile compounds in culture. […] Cultures were carried out in duplicate. Plates were incubated at 37° C. in a humidified 5% CO2 atmosphere. Cellular proliferation was determined by [^3 H] thymidine uptake (0.5 uCi/well; New England Nuclear, Boston, Mass.) after the incubation times indicated for each experiment with a 4 hour labeling pulse.

CD4^+ T lymphocytes = experiment: Proliferation of anti-CD3 activated CD4+ T lymphocytes; type: cell-based, BALB/c mouse
From the text: as §1, §2, §3, §4

CD8^+ T lymphocytes = experiment: Proliferation of anti-CD3 plus IL-2 activated CD8+ T lymphocytes; type: cell-based, BALB/c mouse
From the text: as §1, §2, §3, §4

conversion to 14HRR (lymphoblastoid 5/2 cells): produced 14HRR
Compound: CC1=C(/C=C/C(C)=C/C=C/C(C)(O)C(O)CO)C(C)(C)CCC1 (stereo not drawn) [13,14DHR, 13,14-dihydroxy-retinol]
restoration of proliferation in absence of retinol (5/2 cells): proliferation was restored as well | ability to substitute for retinol in T cell activation (words) (T cells): can effectively substitute for retinol | order of metabolite production (5/2 lymphoblastoid cells): production of 13,14DHR precedes that of 14HRR

Compound: CC1=C(/C=C/C(C)=C/C=C/C(C)=C/C=O)C(C)(C)CCC1 [all-trans retinal]
support of growth of LCL in serum-free medium [1]: support the growth of LCL in serum-free medium | stimulation of lymph node T cells (lymph node T cells): dependent on the presence of retinal | active concentration (B lymphocytes): 200 nM | support of growth of activated human thymocytes [2]: The same is true for activated human thymocytes | ability to substitute for retinol in T cell activation (words) (T cells): can substitute for retinal | effect of delayed addition (thymocytes; addition delayed by 24 hours): complete failure of activation | effectiveness relative to retinol (thymocytes; anti-CD3, 14HRR at 12 hour intervals): equally effective as all-trans retinol | optimally effective dose (thymocytes; given once in a 3-day culture): 2 µM | optimally effective dose (thymocytes; provided at 12 hour intervals): 0.2 µM | response of CD4+ subset to anti-CD3 (CD4^+ T lymphocytes): responded to the activating signal | response of CD8+ subset to anti-CD3 plus IL-2 (CD8^+ T lymphocytes): responded to the activating signal

Source: patent publication US5814612A, “Retinol derivatives and uses thereof” (priority 1992, dated 1998)
